From patent US20250154154A1 (Relay Binney Street, 2nd Floor, priority 2020, published 2025)

Tests used:
[1] = target: SRC (Homo sapiens, UniProt P12931); assay: SRC Biochemical Assay Protocol (microfluidic mobility shift assay, FLPeptide4 substrate)
How it was run: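 Mobility-shift readout of phosphorylated FLPeptide4 (1.5 μM) after 90 min kinase reaction with 50 μM ATP and 0.26 nM SRC in pH 7.4 HEPES buffer. Compounds, tested 0.0017–100 μM, were preincubated 30 min with enzyme and peptide; IC50 from 4-parameter logistic fit versus neutral controls.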

[2] = tested on: phospho-S6RP (Ser 235/236) in RBE cells; assay: Cellular Proliferation Protocol (cellular phospho-S6RP HTRF), RBE cells; assay type: cell-based; conditions: 6 hours treatment, RBE or SNU-1079 cells, cell line not given
How it was run: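 Phospho-S6RP (Ser 235/236) was quantified by HTRF in lysed RBE cells (2000/well) after a 6 h treatment at 37° C, with overnight antibody incubation at room temperature. IC50 values came from 4-parameter dose-response fits relative to DMSO vehicle.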

[3] = tested on: RBE cells; assay: Cell Viability Protocol (CellTiterGlo), RBE cells; assay type: cell-based; conditions: RBE or SNU-1079 cells, 72 or 120 hour, cell line and time not given
How it was run: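 After 72 h or 120 h compound exposure at 37° C, viability was read by CellTiterGlo as % of DMSO vehicle, with IC50 fitted by a 4-parameter curve. Cells had been seeded at 1200/well in 10% FBS RPMI 1640 and allowed 24 h before dosing.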

SRC, sequence (P12931 whole entry, species assumed): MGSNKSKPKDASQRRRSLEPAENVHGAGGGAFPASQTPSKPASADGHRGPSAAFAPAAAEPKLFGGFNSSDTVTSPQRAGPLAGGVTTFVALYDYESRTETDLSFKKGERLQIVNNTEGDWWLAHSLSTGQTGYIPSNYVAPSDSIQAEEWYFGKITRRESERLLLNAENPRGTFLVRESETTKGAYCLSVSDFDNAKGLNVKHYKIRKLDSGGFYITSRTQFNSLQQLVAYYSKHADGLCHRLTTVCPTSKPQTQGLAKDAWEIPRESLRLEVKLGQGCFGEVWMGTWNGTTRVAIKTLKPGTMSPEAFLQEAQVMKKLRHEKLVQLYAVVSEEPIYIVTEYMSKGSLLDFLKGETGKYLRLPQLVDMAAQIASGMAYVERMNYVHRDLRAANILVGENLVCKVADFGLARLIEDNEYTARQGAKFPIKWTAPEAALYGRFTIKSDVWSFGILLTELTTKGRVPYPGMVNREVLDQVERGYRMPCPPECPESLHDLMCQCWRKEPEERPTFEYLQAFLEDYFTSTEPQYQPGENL

Structure (SMILES)	IC50 [1]	IC50 ([2]; 6 h)	IC50 [3]	IC50 [2]
C=CC(=O)N1CC[C@H](N2CC(C#Cc3c(-c4ccc(Oc5cccc(C)n5)c(OC)c4)c4c(N)ncnc4n3C)C2)[C@H](F)C1 [II-309]	10 to 1000 nM	10 to 1000 nM	10 to 1000 nM	
C=CC(=O)N1C[C@@H]2[C@@H](C#Cc3c(-c4ccc(Oc5cccc(C)n5)c(OC)c4)c4c(N)ncnc4n3C(C)C)[C@@H]2C1 [II-219, 1-((1R,5S,6s)-6-((4-amino-7-isopropyl-5-(3-methoxy-4-((6-methylpyridin-2-yl)oxy)phenyl)-7H-pyrrolo[2,3-d]pyrimidin-6-yl)ethynyl)-3-azabicyclo[3.1.0]hexan-3-yl)prop-2-en-1-one]	≤ 10 nM	≤ 10 nM	≤ 10 nM	
C=CC(=O)N1CC[C@@H](N2CC(C#Cc3c(-c4ccc(Cl)c(F)c4)c4c(N)ncnc4n3C)C2)[C@@H](O)C1 [II-66]	10 to 1000 nM		10 to 1000 nM	10 to 1000 nM
C=CC(=O)N1CCC(N2CC(C#Cc3c(-c4ccc(Oc5ccccc5)cc4)c4c(N)ncnc4n3CCOC)C2)CC1 [II-189, 1-(4-(3-((4-amino-7-(2-methoxyethyl)-5-(4-phenoxyphenyl)-7H-pyrrolo[2,3-d]pyrimidin-6-yl)ethynyl)azetidin-1-yl)piperidin-1-yl)prop-2-en-1-one]	10 to 1000 nM	1000 to 10000 nM	1000 to 10000 nM	
C=CC(=O)NCC(=O)N1CCC(C#Cc2c(-c3ccc(Oc4ccccc4)cc3)c3c(N)ncnc3n2C(C)C)CC1 [Example I-49]	≤ 10 nM	≤ 10 nM	≤ 10 nM	
C=CC(=O)N1CC[C@@H](N2CC(C#Cc3c(-c4ccc(Oc5ccccc5)c(OC)n4)c4c(N)ncnc4n3C)C2)[C@@H](O)C1 [II-316]	10 to 1000 nM		≤ 10 nM	≤ 10 nM
COc1cc(Oc2ccccc2F)ccc1-c1c(C#C[C@@H]2[C@H]3CN(C(=O)/C=C/CN(C)C)C[C@@H]23)n(C)c2ncnc(N)c12 [II-228, (E)-1-((1R,5S,6s)-6-((4-amino-5-(4-(2-fluorophenoxy)-2-methoxyphenyl)-7-methyl-7H-pyrrolo[2,3-d]pyrimidin-6-yl)ethynyl)-3-azabicyclo[3.1.0]hexan-3-yl)-4-(dimethylamino) but-2-en-1-one]	10 to 1000 nM	10 to 1000 nM	10 to 1000 nM	
C=CC(=O)N1CCC(N2CC(C#Cc3c(-c4ccc(Oc5cccc(C)n5)cc4)c4c(N)ncnc4n3C)C2)C[C@H]1CO (stereo partly drawn) [II-199, 1-((2S)-4-(3-((4-amino-7-methyl-5-(4-(6-methylpyridin-2-yloxy)phenyl)-7H-pyrrolo[2,3-d]pyrimidin-6-yl)ethynyl)azetidin-1-yl)-2-(hydroxymethyl)piperidin-1-yl)prop-2-en-1-one]	≤ 10 nM	≤ 10 nM	≤ 10 nM	
C=CC(=O)N1CC[C@@H](N2CC(C#Cc3c(-c4ccc(C(F)(F)F)cc4)c4c(N)ncnc4n3C)C2)[C@@H](O)C1 [II-72]	10 to 1000 nM		10 to 1000 nM	10 to 1000 nM
CC(C)n1c(C#C[C@@H]2[C@H]3CN(C(=O)/C=C/CN(C)C)C[C@@H]23)c(-c2ccc(F)c3c2OCO3)c2c(N)ncnc21 [II-293]	≤ 10 nM	≤ 10 nM	≤ 10 nM	
C=CC(=O)N1CCN(C2CC(C#Cc3c(-c4ccc(Oc5ccccc5)cc4)c4c(N)ncnc4n3C)C2)CC1 (stereo not drawn) [II-167, 1-(4-(3-((4-amino-7-methyl-5-(4-phenoxyphenyl)-7H-pyrrolo[2,3-d]pyrimidin-6-yl)ethynyl)cyclobutyl)piperazin-1-yl)prop-2-en-1-one]	10 to 1000 nM	10 to 1000 nM	≤ 10 nM	
C=CC(=O)N1CC[C@@H](N2CC(C#Cc3c(-c4ccc(Cl)c(OC)n4)c4c(N)ncnc4n3C)C2)[C@@H](O)C1 [II-318]	10 to 1000 nM		10 to 1000 nM	10 to 1000 nM
C=CC(=O)N1C[C@@H]2[C@@H](C#Cc3c(-c4ccc(Cl)c(OC)c4)c4c(N)ncnc4n3C(C)C)[C@@H]2C1 [II-271]	≤ 10 nM	≤ 10 nM	≤ 10 nM	
C=CC(=O)N1CC[C@@H](N2CC(C#Cc3c(-c4ccc5c(c4)N(C)CCO5)c4c(N)ncnc4n3C)C2)[C@@H](O)C1 [II-77]	1000 to 10000 nM		1000 to 10000 nM	1000 to 10000 nM
C=CC(=O)N1CCC(N2CC(C#Cc3c(-c4ccc(Oc5cccc(C)n5)c(OC)c4)c4c(N)nccc4n3C)C2)CC1 [II-80]	1000 to 10000 nM		10 to 1000 nM	1000 to 10000 nM
C=CC(=O)N[C@@H](CO)C(=O)N1C[C@@H]2[C@@H](C#Cc3c(-c4ccc(Oc5ccccc5)cc4)c4c(N)ncnc4n3C)[C@@H]2C1 [II-210, N-[(2S)-1-[(1R,5S,6S)-6-[2-[4-amino-7-methyl-5-(4-phenoxyphenyl)-7H-pyrrolo[2,3-d]pyrimidin-6-yl]ethynyl]-3-azabicyclo[3.1.0]hexan-3-yl]-3-hydroxy-1-oxopropan-2-yl]prop-2-enamide]	≤ 10 nM	≤ 10 nM	≤ 10 nM	

Structure (SMILES)	IC50 [1]	IC50 ([2]; 6 h)	IC50 [3]	IC50 [2]
C=CC(=O)N1CCC(N2CC(C#Cc3c(-c4ccc(Cl)c(O)c4)c4c(N)ncnc4n3C)C2)CC1 [II-95]	≤ 10 nM		10 to 1000 nM	10 to 1000 nM
C=CC(=O)N1C[C@@H]2[C@@H](C#Cc3c(-c4ccc(Oc5ccccc5)cc4Cl)c4c(N)ncnc4n3C)[C@@H]2C1 [II-48]	10 to 1000 nM		≤ 10 nM	≤ 10 nM
C=CC(=O)N1C[C@@H]2[C@@H](C#Cc3c(-c4ccc(Oc5ccccc5)cc4)c4c(N)ncnc4n3CCOC)[C@@H]2C1 [II-229, 1-((1R,5S,6s)-6-((4-amino-7-(2-methoxyethyl)-5-(4-phenoxyphenyl)-7H-pyrrolo[2,3-d]pyrimidin-6-yl)ethynyl)-3-azabicyclo[3.1.0]hexan-3-yl)prop-2-en-1-one]	≤ 10 nM	≤ 10 nM	≤ 10 nM	
C=CC(=O)N1CCC(N2CC(C#Cc3c(-c4ccc(Cl)c(OC)n4)c4c(N)ncnc4n3C(C)C)C2)CC1 [II-327]	≤ 10 nM		10 to 1000 nM	10 to 1000 nM
C=CC(=O)N1CCC(N2CC(C#Cc3c(-c4ccc(Oc5ccccc5)cc4)c4c(N)ncnc4n3C(C)C)C2)CC1 [Example I-44]	≤ 10 nM	≤ 10 nM	≤ 10 nM	
C=CC(=O)N1CC[C@@H](N2CC(C#Cc3c(-c4ccc(C5CC5)c(OC)c4)c4c(N)ncnc4n3C)C2)[C@@H](O)C1 [II-67]	10 to 1000 nM		10 to 1000 nM	10 to 1000 nM
C=CC(=O)N1CC[C@@H](N2CC(F)(C#Cc3c(-c4ccc(Oc5ccccc5)cc4)c4c(N)ncnc4n3C)C2)C[C@H]1CO [II-205, 1-((2S,4R)-4-(3-((4-amino-7-methyl-5-(4-phenoxyphenyl)-7H-pyrrolo[2,3-d]pyrimidin-6-yl)ethynyl)-3-fluoroazetidin-1-yl)-2-(hydroxymethyl)piperidin-1-yl)prop-2-en-1-one]	10 to 1000 nM	10 to 1000 nM	10 to 1000 nM	
C=CC(=O)N1CCC(N2CC(C#Cc3c(-c4ccccc4OC)c4c(N)ncnc4n3C)C2)CC1 [II-268]	10 to 1000 nM	1000 to 10000 nM	1000 to 10000 nM	
C=CC(=O)N1CC[C@H](N2CC(C#Cc3c(-c4ccc(Oc5ccccc5)cc4)c4c(N)ncnc4n3C)C2)[C@H](O)C1 [II-164, 1-((3R,4S)-4-(3-((4-amino-7-methyl-5-(4-phenoxyphenyl)-7H-pyrrolo[2,3-d]pyrimidin-6-yl)ethynyl)azetidin-1-yl)-3-hydroxypiperidin-1-yl)prop-2-en-1-one]	10 to 1000 nM	≤ 10 nM	≤ 10 nM	
C=CC(=O)N1CC[C@@H](N2CC(C#Cc3c(-c4ccc(Oc5cccc(C)n5)c(OC)c4)c4c(N)ncnc4n3C)C2)[C@H](O)C1 [II-217, 1-((3R,4R)-4-(3-((4-amino-5-(3-methoxy-4-((6-methylpyridin-2-yl)oxy)phenyl)-7-methyl-7H-pyrrolo[2,3-d]pyrimidin-6-yl)ethynyl)azetidin-1-yl)-3-hydroxypiperidin-1-yl)prop-2-en-1-one]	10 to 1000 nM	10 to 1000 nM	10 to 1000 nM	
C=CC(=O)N1C[C@@H]2[C@@H](C#Cc3c(-c4c(Cl)ccc5c4OCO5)c4c(N)ncnc4n3C)[C@@H]2C1 [II-38]	10 to 1000 nM		10 to 1000 nM	10 to 1000 nM
C=CC(=O)N1CCC(C#Cc2c(-c3ccc(Oc4ccccc4)cc3)c3c(N)ncnc3n2C)CC1 [Example I-4]	10 to 1000 nM	≤ 10 nM	10 to 1000 nM	
COc1cc(Oc2cccc(F)c2)ccc1-c1c(C#C[C@@H]2[C@H]3CN(C(=O)/C=C/CN(C)C)C[C@@H]23)n(C)c2ncnc(N)c12 [II-45]	10 to 1000 nM		10 to 1000 nM	10 to 1000 nM
C=CC(=O)N1CCC(O)(C#Cc2c(-c3ccc(Oc4ccccc4)cc3)c3c(N)ncnc3n2C(C)C)CC1 [Example I-25]	≤ 10 nM	≤ 10 nM	≤ 10 nM	
C=CC(=O)N1CCC(N2CC(C#Cc3c(-c4ccc(OC5CC5)cc4)c4c(N)ncnc4n3C)C2)CC1 [II-100]	1000 to 10000 nM		10 to 1000 nM	10 to 1000 nM
C=CC(=O)N1CCC(N2CC(C#Cc3c(-c4ccc(Oc5ccccc5)cc4)c4c(N)ncnc4n3C)C2)C1 (stereo not drawn) [II-195, 1-(3-(3-((4-amino-7-methyl-5-(4-phenoxyphenyl)-7H-pyrrolo[2,3-d]pyrimidin-6-yl)ethynyl)azetidin-1-yl)pyrrolidin-1-yl)prop-2-en-1-one]	10 to 1000 nM	10 to 1000 nM	10 to 1000 nM	
